Assays:
[1] = Incorporation and retention of a hydrophobic substance in the hydrogel on addition of water and washing with water; assay type: physicochemical; settings: acetone solution, water added
Description: 1 g of copolymer of Example 1.3 and 5 mg of commercial colorant Yellow OB are dissolved in 2 cm^3 of acetone.
This is a very hydrophobic, water-insoluble colorant. Distilled water (4 cm^3) is gradually added. A gel is obtained which occupies virtually all the volume of the starting acetone solution.
Hydrogels in which progesterone is incorporated were prepared in an analogous way. […] When administered by subcutaneous injection, the gel constitutes a bioresorbable soft implant which gradually releases the progesterone.

[2] = as described for the commercial colorant; cited from earlier work

For `Cc1ccccc1N=Nc1c(N)ccc2ccccc12` [Yellow OB], the “crystallisation / precipitation of the hydrophobic substance on addition of water or washing” value [1] is given as “the colorant crystallizes during the addition of water” and the “solubility of the colorant in water” value [2] is given as “water-insoluble”.

Reference: patent publication US6350812B1, “Hydrogels containing triblock copolymers, and preparation and use thereof” (Centre National de la Recherche Scientifique (CNRS), priority 1995, dated 2002)
